Patent US20260242768A1, “ACETYL-COENZYME A CARBOXYLASE MUTANTS” (CIBUS US LLC, priority 2023, published 2026)
Values belong to the substance of their own block, whether it stands above or below them.

Legend:
[1] = test system: rice (Oryza sativa) plastidal ACCase; assay: Clethodim tolerance of rice ACCase mutations, yeast complementation assay (Examples 1-3); assay type: cell-based; details: for clethodim tolerance of combined mutations compared with single mutation(s) or parent mutant: double/triple mutants vs single mutations; for clethodim tolerance: ACCase mutation tested with the herbicide clethodim; for effect on clethodim tolerance of the single D2078G mutation: mutation added to D2078G
Text: Joachimiak M. et al Proc Natl Acad Sci U.S.A. 1997 Sep. 2; 94 (18): 9990-5 and WO/2013/074524 and WO/2013/074524 each describe methods to complement a yeast (Saccharomyces cerevisiae) strain lacking the native acc1 gene with either a wt or mutated form of a chimeric plastidal ACCase gene from a plant such as rice (Oryza sativa). Methods to introduce one or more mutations listed herein into the chimeric ACCase gene and subsequently complement the acc1 lacking yeast strain are well known by an individual skilled in the art. In the art assays are known for measuring tolerance of a mutated plant ACCase gene versus a herbicide that is a member of the aryloxyphenoxypropanoate, cyclohexanedione, and/or phenylpyrazoline families of herbicides such as clethodim, sethoxydim, fluazifop, haloxyfop, quizalofop, and pinoxaden (Joachimiak M. et al Proc Natl Acad Sci U.S.A. 1997 Sep. 2; 94 (18): 9990-5 and WO/2013/074524).
A library of random mutations in the rice (Oryza sativa) plastidal ACCase gene was generated and screened for clethodim tolerant clones using a yeast complementation assay.

O. sativa ACCase = assay: Growth of Saccharomyces cerevisiae pseudodiploid acc1Δ strains carrying wild-type or mutant OsACCase plasmids, streaked onto plates with increasing concentrations of clethodim (Examples 5, 7, 10; Tables 8, 12); assay type: cell-based, Oryza sativa; parameters: key to growth, 0 mM clethodim / growth, 0.025 mM clethodim / growth, 0.1 mM clethodim / growth, 0.25 mM clethodim / growth, 0.5 mM clethodim / growth, 1 mM clethodim: ++ = Strong growth; + = Poor growth; − = No growth; key to relative growth phenotype, 0.5 mM clethodim / relative growth phenotype, 1 mM clethodim / relative growth phenotype, 2 mM clethodim / relative growth phenotype, highGal / relative growth phenotype, lowGal / relative growth phenotype, 0.05 mM clethodim / relative growth phenotype, 0.1 mM clethodim / relative growth phenotype, 0.25 mM clethodim: +++ high growth; ++ moderate growth; + low to negligible growth; (−) some cell debris, no growth; − no growth or cell debris; details: for relative growth phenotype, 0.05 mM clethodim: plate with 0.05 mM clethodim; for relative growth phenotype, 2 mM clethodim: plate with 2 mM clethodim; for relative growth phenotype, highGal / relative growth phenotype, lowGal: yeast acc1Δ strain with OsACCase plasmid, no clethodim; for relative growth phenotype, highGal: high galactose plate; for relative growth phenotype, lowGal: low galactose plate; for clethodim tolerance compared to the wild-type (wt) control strain: Example 5
Text: Mutations at position N2097S and V2098A were combined to determine if point mutations at both positions gave increased resistance compared to either single point mutation. Each of these respective mutations (N2097S, V2098A and N2097S/V2098A) were generated by standard methods and introduced into a Saccharomyces cerevisiae pseudodiploid acc1Δ strain with a plasmid containing wild-type O. sativa ACCase gene. Once each of these mutations were introduced by recombination mediated mutagenesis, the OsACCase wild-type plasmid was removed, and mutation strains were confirmed by sequencing. The three strains, along with a series of controls including a WT strain (negative control), an I1781L mutant strain, and a D2078G mutant strain (positive control), were streaked onto plates with increasing concentrations of clethodim. […] These observations argue that N2097S is an enhancer of V2098A tolerance.
Edits at position S1784N and A1785G were combined to determine if point mutations at both of these two positions gave increased resistance compared to either single point mutation. Each of these respective mutations (S1784N, A1785G and S1784N/A1785G) were generated by standard methods and introduced into a Saccharomyces cerevisiae pseudodiploid acc1Δ strain with a plasmid containing wild-type O. sativa ACCase gene. Once each of these mutations were introduced by recombination mediated mutagenesis, the OsACCase wild-type plasmid was removed, and mutation strains were confirmed by sequencing. The three strains, along with a series of controls including a WT strain (negative control), an I1781L mutant strain, a D2078G mutant strain (positive control), and a V2075L mutant strain were streaked onto plates with increasing concentrations of clethodim.
Each of these respective mutations (D2078G, P2083T, D2078G/P2083T) were generated by standard methods and introduced into a Saccharomyces cerevisiae pseudodiploid acc14 strain with a plasmid containing the wild-type O. sativa ACCase gene. Once plasmids bearing each of these mutations, introduced using recombination-mediated mutagenesis, the OsACCase wild-type plasmid was removed, and strains bearing each mutant plasmid were confirmed by sequencing. The three strains, along with a series of controls including a wild-type strain (negative control), an I1781L mutant strain (medium control), and a pre-existing D2078G mutant strain (positive control) were streaked onto plates with increasing concentrations of clethodim.

[2] = plate with 0.1 mM clethodim, galactose 0.01%
[3] = plate with 0.25 mM clethodim, galactose 0.01%
[4] = plate with 0.5 mM clethodim, galactose 0.01%
[5] = plate with 1 mM clethodim, galactose 0.01%
[6] = plates with increasing clethodim, 0.01% galactose

Substance: V2098A/N2097D: double mutant ACCase
- clethodim tolerance of combined mutations compared with single mutation(s) or parent mutant [1]: either less, or no more, tolerant than the single D2078G, V2075L and V2098A mutations

- clethodim concentrations on which the strain grew (O. sativa ACCase; Example 7, plates with increasing clethodim, 0.01% galactose): up to 1 mM
- relative growth phenotype, 0.05 mM clethodim (O. sativa ACCase; galactose 0.01%): +++
- relative growth phenotype, 0.1 mM clethodim (O. sativa ACCase; [2]): +++
- relative growth phenotype, 0.25 mM clethodim (O. sativa ACCase; [3]): +++
- relative growth phenotype, 0.5 mM clethodim (O. sativa ACCase; [4]): +++
- relative growth phenotype, 1 mM clethodim (O. sativa ACCase; [5]): +
- relative growth phenotype, 2 mM clethodim (O. sativa ACCase; galactose 0.01%): (−)
- relative growth phenotype, highGal (O. sativa ACCase): +++
- relative growth phenotype, lowGal (O. sativa ACCase): +++
Substance: S1784N/A1785G: double mutant ACCase
- tolerance/resistance of double mutant compared with single mutation(s) (O. sativa ACCase; [6]): superior in terms of resistance to either individual mutation

Substance: L1543V: mutated ACCase, numbering per SEQ ID NO: 2
- clethodim tolerance [1]: measurable clethodim tolerance

- relative growth phenotype, 0.05 mM clethodim (O. sativa ACCase; galactose 0.01%): +++
- relative growth phenotype, 0.1 mM clethodim (O. sativa ACCase; [2]): +++
- relative growth phenotype, 0.25 mM clethodim (O. sativa ACCase; [3]): +++
- relative growth phenotype, 0.5 mM clethodim (O. sativa ACCase; [4]): +++
- relative growth phenotype, 1 mM clethodim (O. sativa ACCase; [5]): +
- relative growth phenotype, 2 mM clethodim (O. sativa ACCase; galactose 0.01%): (−)
- relative growth phenotype, highGal (O. sativa ACCase): +++
- relative growth phenotype, lowGal (O. sativa ACCase): +++
Substance: V2075L: mutated ACCase, numbering per SEQ ID NO: 2
- clethodim tolerance [1]: measurable clethodim tolerance
- growth on clethodim plates (in words) (O. sativa ACCase; [6]): grew to a similar extent as the V2075L mutation

Substance: L1543F: mutated ACCase, numbering per SEQ ID NO: 2
- clethodim tolerance [1]: measurable clethodim tolerance

Substance: N2097S/V2098A: double mutant ACCase
- tolerance/resistance of double mutant compared with single mutation(s) (O. sativa ACCase; [6]): notably increased compared to the V2098A change alone

Substance: N2097S: mutated ACCase, numbering per SEQ ID NO: 2
- clethodim tolerance [1]: neither the N2097S nor the N2097D single mutations provide detectable clethodim tolerance
- effect on clethodim tolerance when combined with D2078G, V2075L or V2098A ([1]; combined with either D2078G, V2075L or V2098A): further increases clethodim tolerance
- clethodim tolerance compared to the wild-type (wt) control strain (O. sativa ACCase; [6]): does not produce detectable clethodim tolerance

- relative growth phenotype, 0.05 mM clethodim (O. sativa ACCase; galactose 0.01%): +++
- relative growth phenotype, 0.1 mM clethodim (O. sativa ACCase; [2]): +++
- relative growth phenotype, 0.25 mM clethodim (O. sativa ACCase; [3]): +
- relative growth phenotype, 0.5 mM clethodim (O. sativa ACCase; [4]): (−)
- relative growth phenotype, 1 mM clethodim (O. sativa ACCase; [5]): (−)
- relative growth phenotype, 2 mM clethodim (O. sativa ACCase; galactose 0.01%): (−)
- relative growth phenotype, highGal (O. sativa ACCase): +++
- relative growth phenotype, lowGal (O. sativa ACCase): +++
Substance: S1784N: mutated ACCase, numbering per SEQ ID NO: 2
- clethodim tolerance [1]: measurable clethodim tolerance

Substance: M1974T: mutated ACCase, numbering per SEQ ID NO: 2
- clethodim tolerance [1]: neither R1672I nor M1974T alone provide measurable tolerance
- effect on clethodim tolerance of the single D2078G mutation [1]: increase tolerance of the single D2078G mutation

Substance: L1543F-D1681E: double mutant ACCase
- clethodim tolerance of combined mutations compared with single mutation(s) or parent mutant [1]: increased clethodim tolerance compared to any one mutation alone

Substance: M1975T: mutated ACCase, numbering per SEQ ID NO: 2
- effect on clethodim tolerance of the single D2078G mutation [1]: neither M1975T nor M2257I provide detectable clethodim tolerance increase to the single D2078G mutation

Substance: M1974T-D2078G: double mutant ACCase
- clethodim tolerance of combined mutations compared with single mutation(s) or parent mutant [1]: tolerance that is similar to the corresponding original triple mutants

Substance: R1672I-D2078G: double mutant ACCase
- clethodim tolerance of combined mutations compared with single mutation(s) or parent mutant [1]: tolerance that is similar to the corresponding original triple mutants

Substance: D1681E: mutated ACCase, numbering per SEQ ID NO: 2
- clethodim tolerance [1]: measurable clethodim tolerance

Substance: S1784G: mutated ACCase, numbering per SEQ ID NO: 2
- clethodim tolerance [1]: measurable clethodim tolerance

Substance: L1543F-D1681G: double mutant ACCase
- clethodim tolerance of combined mutations compared with single mutation(s) or parent mutant [1]: increased clethodim tolerance compared to any one mutation alone

Substance: D2078G/N2097S: double mutant ACCase
- clethodim tolerance of combined mutations compared with single mutation(s) or parent mutant [1]: either less, or no more, tolerant than the single D2078G, V2075L and V2098A mutations

Substance: V2098A: mutated ACCase, numbering per SEQ ID NO: 2
- clethodim tolerance [1]: measurable clethodim tolerance
- clethodim tolerance compared to the wild-type (wt) control strain (O. sativa ACCase; [6]): did produce tolerance

Substance: S1784N plus L1818H: double mutant ACCase
- clethodim tolerance of combined mutations compared with single mutation(s) or parent mutant [1]: improves tolerance in comparison to either single mutation

Substance: L1543V-D1681E: double mutant ACCase
- clethodim tolerance of combined mutations compared with single mutation(s) or parent mutant [1]: increased clethodim tolerance compared to any one mutation alone

Substance: R1672I/M1975T/D2078G: triple mutant ACCase clone
- clethodim tolerance of combined mutations compared with single mutation(s) or parent mutant [1]: increased clethodim tolerance compared to the single D2078G mutation

Substance: R1672I: mutated ACCase, numbering per SEQ ID NO: 2
- clethodim tolerance [1]: neither R1672I nor M1974T alone provide measurable tolerance
- effect on clethodim tolerance of the single D2078G mutation [1]: increase tolerance of the single D2078G mutation

Substance: C2088M: mutated ACCase, numbering per SEQ ID NO: 2
- clethodim tolerance [1]: produces measurable tolerance

Substance: L1818H: mutated ACCase, numbering per SEQ ID NO: 2
- clethodim tolerance [1]: measurable clethodim tolerance

Substance: L1818I: mutated ACCase, numbering per SEQ ID NO: 2
- clethodim tolerance [1]: measurable clethodim tolerance

Substance: V2075L/N2097D: double mutant ACCase
- clethodim tolerance of combined mutations compared with single mutation(s) or parent mutant [1]: either less, or no more, tolerant than the single D2078G, V2075L and V2098A mutations

- growth, 0 mM clethodim (O. sativa ACCase; Table 12, plate with 0 mM clethodim, galactose 0.01%): ++
- growth, 0.025 mM clethodim (O. sativa ACCase; Table 12, plate with 0.025 mM clethodim, galactose 0.01%): −
- growth, 0.1 mM clethodim (O. sativa ACCase; Table 12, plate with 0.1 mM clethodim, galactose 0.01%): −
- growth, 0.25 mM clethodim (O. sativa ACCase; Table 12, plate with 0.25 mM clethodim, galactose 0.01%): −
- growth, 0.5 mM clethodim (O. sativa ACCase; Table 12, plate with 0.5 mM clethodim, galactose 0.01%): −
- growth, 1 mM clethodim (O. sativa ACCase; Table 12, plate with 1 mM clethodim, galactose 0.01%): −
Substance: P2083T: mutated ACCase, numbering per SEQ ID NO: 2
- growth on clethodim plates (in words) (O. sativa ACCase; [6]): unable to grow on all concentrations of clethodim tested

Substance: L1543V-D1681G: double mutant ACCase
- clethodim tolerance of combined mutations compared with single mutation(s) or parent mutant [1]: increased clethodim tolerance compared to any one mutation alone

Substance: D1681G: mutated ACCase, numbering per SEQ ID NO: 2
- clethodim tolerance [1]: measurable clethodim tolerance
